Reference: ChEMBL document CHEMBL1201862, “PubChem BioAssay data set” (2004)
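All cell lines were grown in 96-well plates and treated with compound for 48 hours. At the GI50, growth is halved.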 Calls of active or inactive are those of the source. Cut-off read from the data, not from the text of the source: active = GI50 up to about 1.1 µM and inactive = higher.

Assays:
Experiment in all cases: NCI tumour cell line growth inhibition, 48 h
EKVX = tested on: EKVX
NCI-H460 = tested on: NCI-H460
KM12 = tested on: KM12
HCT-15 = tested on: HCT-15
SR = tested on: SR
RXF 393 = tested on: RXF 393
LOX IMVI = tested on: LOX IMVI
TK-10 = tested on: TK-10
A498 = tested on: A498
OVCAR-8 = tested on: OVCAR-8
SNB-19 = tested on: SNB-19
MOLT-4 = tested on: MOLT-4
SNB-75 = tested on: SNB-75
MDA-MB-435 = tested on: MDA-MB-435
CAKI-1 = tested on: CAKI-1
HCT-116 = tested on: HCT-116
RPMI-8226 = tested on: RPMI-8226
SF-539 = tested on: SF-539
SK-MEL-28 = tested on: SK-MEL-28
HOP-62 = tested on: HOP-62

SMILES | GI50 (EKVX) | GI50 (NCI-H460) | GI50 (KM12) | GI50 (HCT-15) [µM] | GI50 (SR) | GI50 (RXF 393) | GI50 (LOX IMVI) | GI50 (TK-10) | GI50 (A498) | GI50 (OVCAR-8) | GI50 (SNB-19) | GI50 (MOLT-4) | GI50 (SNB-75) | GI50 (MDA-MB-435) | GI50 (CAKI-1) | GI50 (HCT-116) | GI50 (RPMI-8226) | GI50 (SF-539) | GI50 (SK-MEL-28) | GI50 (HOP-62)
COc1cc(CC2C(=O)OCC2Cc2ccc(OC)c(OC)c2)ccc1O (stereo not given) | > 27.8 µM (inactive) | > 100 µM (inactive) | > 100 µM (inactive) | > 100 | > 100 µM (inactive) | > 100 µM (inactive) | 30.8 µM (inactive) | > 100 µM (inactive) | > 100 µM (inactive) | > 100 µM (inactive) | > 100 µM (inactive) | 4.76 µM (inactive) | > 60.5 µM (inactive) | > 100 µM (inactive) | > 100 µM (inactive) | > 100 µM (inactive) | > 100 µM (inactive) | > 100 µM (inactive) | > 100 µM (inactive) | > 100 µM (inactive)
COc1cc2c(cc1OCCCCCN1C(=O)c3cccc4cccc(c34)C1=O)N=C[C@@H]1CCCN1C2=O | 0.492 µM (active) | 0.316 µM (active) | 0.231 µM (active) | 0.331 | < 0.01 µM (active) | 0.0647 µM (active) | 0.126 µM (active) | 0.129 µM (active) | 0.31 µM (active) | 0.281 µM (active) | 0.327 µM (active) | 0.0743 µM (active) | 0.34 µM (active) | 0.167 µM (active) | 0.208 µM (active) | 0.215 µM (active) | 0.119 µM (active) | 0.0646 µM (active) | 0.301 µM (active) | 0.262 µM (active)
CCOC(=O)C1=C(C(=O)OCC)SC2(S1)C(C(=O)OCC)=C(C(=O)OCC)Sc1c2ssc1=O | 2.34 µM (inactive) | 8.51 µM (inactive) | 4.52 µM (inactive) | 0.912 | < 0.01 µM (active) | 1.03 µM (active) | 0.239 µM (active) | 1.73 µM (inactive) | 6.15 µM (inactive) | 1.6 µM (inactive) | 3.84 µM (inactive) | 0.226 µM (active) | 1.85 µM (inactive) | 1.99 µM (inactive) | 2.42 µM (inactive) | 0.815 µM (active) | 1.59 µM (inactive) | 0.845 µM (active) | 1.84 µM (inactive) | 1.67 µM (inactive)
COCc1nc2c(OC)c(-c3nc4ccc(N5CCN(C)CC5)cc4[nH]3)cc(OC)c2[nH]1 | 99.8 µM (inactive) | 36.7 µM (inactive) | 28.1 µM (inactive) | 56.1 | 19.7 µM (inactive) | 14.3 µM (inactive) | 18.7 µM (inactive) | 84.9 µM (inactive) | > 100 µM (inactive) | 60.7 µM (inactive) | 48.8 µM (inactive) | 41.1 µM (inactive) | 4.3 µM (inactive) | 33 µM (inactive) | 41.7 µM (inactive) | 30.8 µM (inactive) | 32.1 µM (inactive) | 20 µM (inactive) | > 100 µM (inactive) | 32.4 µM (inactive)
